# Laboratory results: US10082509B2 (priority 2013, dated 2018)
# “Also recorded” adds a separate entry of the source. Where two headings read alike, the source gives them in different places.
# Columns and labels:
# Legionella pneumophila = format: cell-based; conditions: for labelling / metabolic incorporation: L. pneumophila strains, laboratory in vitro conditions, FIG. 7; for membrane labelling: FIG. 4
# E. coli K12 (MG1655) = format: cell-based, Escherichia coli
# [1] = test system: L. gormanii, L. maceachernii, L. micdadei, L. anisa, L. feeli, L. jordanis, L. tucsonensis and L. bozemanii; format: cell-based, Legionella spp.
# [2] = test system: P. aeruginosa (ATCC 9027); format: cell-based, Pseudomonas aeruginosa
SMILES,labelling / metabolic incorporation (Legionella pneumophila),membrane labelling (Legionella pneumophila; L. pneumophila strain of serogroup 7),"membrane fluorescence / metabolic incorporation of the azido chemical reporter into LPS (Legionella pneumophila; four L. pneumophila serogroup 1 strains (incl. Philadelphia, Paris, Lens), 4 mM, 12 hours, 37° C., FIG. 3)","membrane labelling (Legionella pneumophila; four L. pneumophila strains of serogroups 3, 4, 5, 6)",labelling / metabolic incorporation (E. coli K12 (MG1655)),membrane fluorescence / metabolic incorporation [1],labelling / metabolic incorporation [2]
CC(=O)NC1C(O)OC(CN=[N+]=[N-])[C@@H](NC(C)=O)[C@@H]1OC(C)=O (some centres unmarked),not incorporated; also recorded: No labelling was observed,–,–,–,–,–,–
CC(=O)N[C@H]1[C@H](O)[C@H](NC(C)=O)C(O)O[C@@H]1CN=[N+]=[N-] (some centres unmarked),efficiently labelled,absence of labelling,highly distinctive fluorescence on their membrane,very bright membrane labelling,not incorporated; also recorded: failed to show any labelling,not incorporated; also recorded: no membrane fluorescence was observed,not incorporated; also recorded: failed to show any labelling
